The values that follow come from patent publication US20230286968A1, “ARYLOXAZOLO SPIRAL RING DERIVATIVES FOR THE TREATMENT AND PROPHYLAXIS OF HEPATITIS B VIRUS INFECTION” (Hoffmann-La Roche Inc., priority 2020, published 2023).

Data set [1] can be described thus: Cytotoxicity in PHH natural infection assay (Cell Counting Kit-8). The data set is classed as cell-based. Conditions: HBV-infected primary human hepatocytes, CCK8. In a few lines:
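HBV-infected primary human hepatocytes (200 GE/cell, 4% PEG8000, 24 h), sandwich-cultured 72 h, then given compound-containing medium twice at 72 h intervals. Cytotoxicity read by CCK-8 at end of treatment.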
In general terms: Tetrazolium assays rely on reduction of a dye to a coloured formazan, in cell work by metabolically active cells.

Another data set relates to HBsAg. Briefly: PHH natural infection assay, HBsAg (alphalisa). Conditions: Hepatitis B virus, Hepatocyte, read-out: HBsAg IC50, HBV-infected primary human hepatocytes, supernatant, alphalisa. It counts as cell-based, HBV. The procedure, abridged: (§1)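 Cryopreserved PHH plated 24 h, infected with HBV at 200 GE/cell plus 4% PEG8000 for 24 h, then sandwich-cultured 72 h with 0.25 mg/mL matrix gel. Compounds at varied concentrations applied twice at 72-h intervals. Supernatant HBsAg and HBeAg measured by AlphaLISA with specific antibodies.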

A further data set relates to HBeAg. Nature of the data set: PHH natural infection assay, HBeAg (alphalisa). It counts as cell-based, HBV. Conditions: Hepatitis B virus, Hepatocyte, read-out: HBeAg IC50, HBV-infected primary human hepatocytes, supernatant, alphalisa. In a few lines:
as §1
On the technique in general: Alpha assays give light when donor and acceptor beads are brought close together.

Molecules are shown by their SMILES.

Take `CCCNC(=O)NC1CC2(C1)CC(c1nc3cc(Cl)ccc3o1)C2` (stereo not drawn) [Example 60, 1-[6-(5-chloro-1,3-benzoxazol-2-yl)spiro[3.3]heptan-2-yl]-3-propyl-urea]: the CC50 at 144 h in data set [1] was over 100 µM. Besides, the results for the IC50 with HBsAg and with HBeAg were 7.19 µM and 5.1 µM, respectively.
In data set [1], `CC(C)NC(=O)NC1CC2(C1)CC(c1nc3cc(Cl)ccc3o1)C2` (stereo not drawn) [Example 61, 1-[6-(5-chloro-1,3-benzoxazol-2-yl)spiro[3.3]heptan-2-yl]-3-isopropyl-urea] came in with a CC50 at 144 h of over 100 µM. Also, the values for the IC50 with HBsAg and in the data set with HBeAg were 4.71 µM and 3.82 µM, respectively.
Taken in the same sequence, the figures for `CCN(C)C(=O)NC1CC2(C1)CC(c1nc3cc(Cl)ccc3o1)C2` (stereo not drawn) [Example 62, 3-[6-(5-chloro-1,3-benzoxazol-2-yl)spiro[3.3]heptan-2-yl]-1-ethyl-1-methyl-urea] were over 100 µM, 3.23 µM and 2.12 µM.
The corresponding values for `O=C(NCC1CCOC1)NC1CC2(C1)CC(c1nc3cc(Cl)ccc3o1)C2` (stereo not drawn) [Example 63, 1-[6-(5-chloro-1,3-benzoxazol-2-yl)spiro[3.3]heptan-2-yl]-3-(tetrahydrofuran-3-ylmethyl)urea] are over 100 µM, 8.02 µM and 5.3 µM.
On to `O=C(NCC1CC(O)C1)NC1CC2(C1)CC(c1nc3cc(Cl)ccc3o1)C2` (stereo not drawn) [Example 64, 1-[6-(5-chloro-1,3-benzoxazol-2-yl)spiro[3.3]heptan-2-yl]-3-[(3-hydroxycyclobutyl)methyl]urea], for which the CC50 at 144 h in data set [1] turned out to be 84.8 µM. Also, the IC50 with HBsAg was 5.62 µM; in the data set with HBeAg it was 4.47 µM.
Taken in the same sequence, the figures for `O=C(NC1CCOC1)NC1CC2(C1)CC(c1nc3cc(Cl)ccc3o1)C2` (stereo not drawn) [Example 65, 1-[6-(5-chloro-1,3-benzoxazol-2-yl)spiro[3.3]heptan-2-yl]-3-tetrahydrofuran-3-yl-urea] were over 100 µM, 3.94 µM and 3.4 µM.
The corresponding values for `O=C(NC1CC2(C1)CC(c1nc3cc(Cl)ccc3o1)C2)N1CCCC1` (stereo not drawn) [Example 66, N-[6-(5-chloro-1,3-benzoxazol-2-yl)spiro[3.3]heptan-2-yl]pyrrolidine-1-carboxamide] are 92.1 µM, 2.5 µM and 1.97 µM.
The corresponding values for `O=C(NC1CC2(C1)CC(c1nc3cc(Cl)ccc3o1)C2)N1CCC2(COC2)C1` (stereo not drawn) [Example 67, N-[6-(5-chloro-1,3-benzoxazol-2-yl)spiro[3.3]heptan-2-yl]-2-oxa-7-azaspiro[3.4]octane-7-carboxamide] are over 100 µM, 3.95 µM and 3.76 µM.
`O=C(NC1CC2(C1)CC(c1nc3cc(Cl)ccc3o1)C2)N1CCS(=O)(=O)CC1` (stereo not drawn) [Example 68, N-[6-(5-chloro-1,3-benzoxazol-2-yl)spiro[3.3]heptan-2-yl]-1,1-dioxo-1,4-thiazinane-4-carboxamide] displayed a cytotoxic concentration (CC50) at 144 h in data set [1] of over 100 µM. Besides, the IC50 with HBsAg came to 6.65 µM; in the data set with HBeAg it was 4.12 µM.
For the molecule `CS(=O)(=O)N1CCC(C(=O)NC2CC3(C2)CC(c2nc4cc(Cl)ccc4o2)C3)C1` (stereo not drawn) [Example 69, N-[6-(5-chloro-1,3-benzoxazol-2-yl)spiro[3.3]heptan-2-yl]-1-methylsulfonyl-pyrrolidine-3-carboxamide], in data set [1], the CC50 at 144 h was over 100 µM. Besides, the IC50 in the data set with HBsAg was determined as 1.79 µM; in the data set with HBeAg, 1.31 µM.
Turning to `CCS(=O)(=O)N1CCC(C(=O)NC2CC3(C2)CC(c2nc4cc(Cl)ccc4o2)C3)C1` (stereo not drawn) [Example 70, N-[6-(5-chloro-1,3-benzoxazol-2-yl)spiro[3.3]heptan-2-yl]-1-ethylsulfonyl-pyrrolidine-3-carboxamide], the CC50 at 144 h in data set [1] was over 10 µM. Moreover, the IC50 in the data set with HBsAg was found to be 5.42 µM; in the data set with HBeAg, 3.62 µM.
For the molecule `CCCS(=O)(=O)N1CCC(C(=O)NC2CC3(C2)CC(c2nc4cc(Cl)ccc4o2)C3)C1` (stereo not drawn) [Example 71, N-[6-(5-chloro-1,3-benzoxazol-2-yl)spiro[3.3]heptan-2-yl]-1-propylsulfonyl-pyrrolidine-3-carboxamide], the CC50 at 144 h in data set [1] is over 10 µM. Also, the IC50 came out at 9.73 µM in the data set with HBsAg and 9.43 µM in the data set with HBeAg.
The corresponding values for `O=C(NC1CC2(C1)CC(c1nc3cc(Cl)ccc3o1)C2)C1CCN(S(=O)(=O)C2CC2)C1` (stereo not drawn) [Example 72, N-[6-(5-chloro-1,3-benzoxazol-2-yl)spiro[3.3]heptan-2-yl]-1-cyclopropylsulfonyl-pyrrolidine-3-carboxamide] are over 10 µM, 9.56 µM and 4.43 µM.
In data set [1], `CC(=O)N1CCC(C(=O)NC2CC3(C2)CC(c2nc4cc(Cl)ccc4o2)C3)C1` (stereo not drawn) [Example 73, 1-acetyl-N-[6-(5-chloro-1,3-benzoxazol-2-yl)spiro[3.3]heptan-2-yl]pyrrolidine-3-carboxamide] showed a CC50 at 144 h of over 10 µM. Besides, the IC50 in the data set with HBsAg was found to be 9.05 µM; with HBeAg it was 6.39 µM.
The corresponding values for `O=C(NC1CC2(C1)CC(c1nc3cc(Cl)ccc3o1)C2)C1CCN(C(=O)C2CC2)C1` (stereo not drawn) [Example 74, N-[6-(5-chloro-1,3-benzoxazol-2-yl)spiro[3.3]heptan-2-yl]-1-(cyclopropanecarbonyl)pyrrolidine-3-carboxamide] are over 10 µM, 3.2 µM and 2.17 µM.
The corresponding values for `O=C(NC1CC2(C1)CC(c1nc3cc(Cl)ccc3o1)C2)C1CCN(C(=O)C2CCC2)C1` (stereo not drawn) [Example 75, N-[6-(5-chloro-1,3-benzoxazol-2-yl)spiro[3.3]heptan-2-yl]-1-(cyclobutanecarbonyl)pyrrolidine-3-carboxamide] are over 10 µM, 9.58 µM and 8.96 µM.
In data set [1], `Cc1ccc(S(=O)(=O)N2CCC(CC(=O)NC3CC4(C3)CC(c3nc5cc(Cl)ccc5o3)C4)C2)cc1` (stereo not drawn) [Example 76, N-[6-(5-chloro-1,3-benzoxazol-2-yl)spiro[3.3]heptan-2-yl]-2-[1-(p-tolylsulfonyl)pyrrolidin-3-yl]acetamide] came in with a CC50 at 144 h of over 10 µM. Also, the IC50 with HBsAg was 2.89 µM; in the data set with HBeAg it was 4 µM.
`CS(=O)(=O)N1CC(CC(=O)NC2CC3(C2)CC(c2nc4cc(Cl)ccc4o2)C3)C1` (stereo not drawn) [Example 77, N-[6-(5-chloro-1,3-benzoxazol-2-yl)spiro[3.3]heptan-2-yl]-2-(1-methylsulfonylazetidin-3-yl)acetamide] returned a CC50 at 144 h in data set [1] of over 10 µM. The results for the IC50 in the data set on HBsAg and with HBeAg were 7.08 µM and 4.35 µM, respectively.
Taken in the same sequence, the figures for `Cc1ccc(S(=O)(=O)N2CC(CC(=O)NC3CC4(C3)CC(c3nc5cc(Cl)ccc5o3)C4)C2)cc1` (stereo not drawn) [Example 78, N-[6-(5-chloro-1,3-benzoxazol-2-yl)spiro[3.3]heptan-2-yl]-2-[1-(p-tolylsulfonyl)azetidin-3-yl]acetamide] were over 10 µM, 4.77 µM and 4.37 µM.
As to `CS(=O)(=O)N1CCC(CC(=O)NC2CC3(C2)CC(c2nc4cc(Cl)ccc4o2)C3)CC1` (stereo not drawn) [Example 79, N-[6-(5-chloro-1,3-benzoxazol-2-yl)spiro[3.3]heptan-2-yl]-2-(1-methylsulfonyl-4-piperidyl)acetamide], the CC50 at 144 h in data set [1] is over 10 µM. The values for the IC50 in the data set with HBsAg and in the data set on HBeAg were 6.72 µM and 3.6 µM, respectively.
For `Cc1ccc(S(=O)(=O)N2CCC(CC(=O)NC3CC4(C3)CC(c3nc5cc(Cl)ccc5o3)C4)CC2)cc1` (stereo not drawn) [Example 80, N-[6-(5-chloro-1,3-benzoxazol-2-yl)spiro[3.3]heptan-2-yl]-2-[1-(p-tolylsulfonyl)-4-piperidyl]acetamide], the CC50 at 144 h in data set [1] was over 10 µM. For the same molecule, the results for the IC50 with HBsAg and in the data set with HBeAg were 3.64 µM and 3.93 µM, respectively.
The corresponding values for `O=C(CCCS(=O)(=O)NC(=O)C1CCC1)NC1CC2(C1)CC(c1nc3cc(Cl)ccc3o1)C2` (stereo not drawn) [Example 81, N-[4-[[6-(5-chloro-1,3-benzoxazol-2-yl)spiro[3.3]heptan-2-yl]amino]-4-oxo-butyl]sulfonylcyclobutanecarboxamide] are over 10 µM, 4.6 µM and 6.06 µM.
Taken in the same sequence, the figures for `O=C(NC1CC2(C1)CC(c1nc3cc(Cl)ccc3o1)C2)c1ccnc(S(=O)(=O)C2CC2)c1` (stereo not drawn) [Example 83, N-[6-(5-chloro-1,3-benzoxazol-2-yl)spiro[3.3]heptan-2-yl]-2-cyclopropylsulfonyl-pyridine-4-carboxamide] were 90.5 µM, 0.14 µM and 0.05 µM.
Consider `O=C(NC1CC2(C1)CC(c1nc3cc(Cl)cnc3o1)C2)c1ccnc(S(=O)(=O)C2CC2)c1` (stereo not drawn) [Example 85, N-[6-(6-chlorooxazolo[5,4-b]pyridin-2-yl)spiro[3.3]heptan-2-yl]-2-cyclopropylsulfonyl-pyridine-4-carboxamide], for which the CC50 at 144 h in data set [1] was over 10 µM. In addition, the figures for the IC50 with HBsAg and in the data set with HBeAg were 0.81 µM and 0.73 µM, respectively.
Taken in the same sequence, the figures for `N=S(=O)(c1cc(C(=O)NC2CC3(C2)CC(c2nc4cc(Cl)ccc4o2)C3)ccn1)C1CC1` (stereo not drawn) [Example 86, N-[6-(5-chloro-1,3-benzoxazol-2-yl)spiro[3.3]heptan-2-yl]-2-(cyclopropylsulfonimidoyl)pyridine-4-carboxamide] were over 100 µM, 0.64 µM and 0.42 µM.
The corresponding values for `CS(=O)(=O)c1cc(C(=O)NC2CC3(C2)CC(c2nc4cc(Cl)cnc4o2)C3)ccn1` (stereo not drawn) [Example 88, N-[6-(6-chlorooxazolo[5,4-b]pyridin-2-yl)spiro[3.3]heptan-2-yl]-2-methylsulfonyl-pyridine-4-carboxamide] are over 10 µM, 2.42 µM and 1.65 µM.

One may read the CC50 as the concentration at which the toxic effect on the cells reaches its halfway point. A lower CC50 goes with greater toxicity to the cells. Usually IC50 stands for the concentration at which inhibition is half-maximal.
